Our source for the inhibition in vivo and IC50 values is patent US11130752B2, “Aminopyrimidine compound” (Cardurion Pharmaceuticals, LLC, priority 2018, dated 2021).

By IC50 is commonly meant the midpoint of a concentration-inhibition curve. A high value points to weaker potency.

The subject of assay [1] is phospholamban (Thr17, PLN) phosphorylation, cardiac CaMKII. Nature of the assay: In vivo cardiac CaMKII inhibition (oral administration), P-PLN Western blot. The conditions noted are these: male CD (SD) IGS rat left ventricle, 30 mg/kg p.o., 4 hr after administration, in comparison with vehicle-treated group, read-out: Reduction rate of P-PLN. Here is the method:
Evaluation of In Vivo Cardiac CaMKII Inhibition (Oral Administration)
To evaluate potency of test compounds to inhibit cardiac CaMKII kinase in vivo, phosphorylation levels of CaMKII-specific sites of phospholamban (Thr17, PLN) were measured in the heart of rats administered orally with test compounds.
Test compounds were suspended in 0.5% [w/v]methylcellulose/water solution and administered (30 mg/kg) to male CD (SD) IGS rat (6-8 weeks old, n=4) by the p.o. route (5 mL/kg). At 4 hours after the administration, rats were sacrificed and the hearts were harvested. After washing the isolated hearts with ice-cold saline, connective tissues were removed on ice, and the isolated left ventricle were frozen into liquid nitrogen gas and stored at −80° C.
The left ventricle samples were homogenized in RIPA-buffer containing phosphatase inhibitors and protease inhibitors. Samples were analyzed by Western blotting using anti-P-PLN (Thr17, Santa Cruz Biotechnology, sc-17024-R) antibody. The band intensities were quantified using an imaging system and were normalized relative to the vehicle-treated group.
Background: A western blot detects proteins with antibodies after separation by electrophoresis.

The target of the next assay is T1, human CaMKIIδ (Homo sapiens, UniProt Q13557).
T1 construct: Full-length, glutathione-S-transferase(GST)-tagged, human CaMKIIδ was purchased from Carna Biosciences; purchased Carna Biosciences (CaMKIIδ); Wako Pure Chemical Industries (calmodulin) 02-111
Nature of the assay: In vitro CaMKII inhibitory activity (binding assay, TR-FRET). To be noted: activity ranks. The method in brief:
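TR-FRET displacement of a BODIPY probe (300 nM) from 0.5 nM full-length GST-tagged human CaMKIIδ, with Tb-anti-GST, calmodulin and 1 mM CaCl2 in pH 7.6 HEPES/MgCl2 buffer. Read after 1 hr at room temperature over an eight-point 4-fold series. IC50 by logistic fit, with 3 μM parent compound as the 100% control.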
A general note: Time-resolved FRET reads energy transfer from a long-lived donor to a nearby acceptor.

The mark [2] stands for this setting: Table 1, GST-tagged human CaMKIIδ.
The mark [3] stands for this setting: Table 4, GST-tagged human CaMKIIδ.

For the molecule `CCOCCOc1nn([C@H]2CC[C@H](N3[C@@H]4CC[C@H]3COC4)CC2)cc1Nc1ncc(-c2ccc(C#N)c(O[C@@H](C)Cn3cnnn3)c2)cn1` [Example 12, 2-(((S)-1-(1H-tetrazol-1-yl)propan-2-yl)oxy)-4-(2-((1-((1r,4r)-4-((1R,5S)-3-oxa-8-azabicyclo[3.2.1]octan-8-yl)cyclohexyl)-3-(2-ethoxyethoxy)-1H-pyrazol-4-yl)amino)pyrimidin-5-yl)benzonitrile], the inhibition in vivo at 30 mg/kg in assay [1] is > 30%. Moreover, the concentration for half-maximal inhibition (IC50) on human CaMKIIδ (setting [2]) was < 10 nM.

For `COCCCOc1nn([C@H]2CC[C@H](N3[C@@H]4CC[C@H]3COC4)CC2)cc1Nc1ncc(-c2ccc(C#N)c(O[C@@H](C)Cn3cnnn3)c2)cn1` [Example 30, 2-(((S)-1-(1H-tetrazol-1-yl)propan-2-yl)oxy)-4-(2-((1-((1r,4r)-4-((1R,5S)-3-oxa-8-azabicyclo[3.2.1]octan-8-yl)cyclohexyl)-3-(3-methoxypropoxy)-1H-pyrazol-4-yl)amino)pyrimidin-5-yl)benzonitrile], in assay [1], the inhibition in vivo at 30 mg/kg is > 30%. Besides, the IC50 on human CaMKIIδ (setting [2]) was < 10 nM.

For the molecule `CCOCCCOc1nn([C@H]2CC[C@H](N3CCOCC3)CC2)cc1Nc1ncc(-c2ccc(C#N)c(O[C@@H](C)Cn3cnnn3)c2)cn1` [Example 33, 2-(((S)-1-(1H-tetrazol-1-yl)propan-2-yl)oxy)-4-(2-((3-(3-ethoxypropoxy)-1-((1r,4r)-4-morpholinocyclohexyl)-1H-pyrazol-4-yl)amino)pyrimidin-5-yl)benzonitrile], the inhibition in vivo at 30 mg/kg in assay [1] is > 30%. Moreover, the IC50 on human CaMKIIδ (setting [2]) is < 10 nM.

As for `CCOCCCOc1nn([C@H]2CC[C@H](N3[C@@H]4CC[C@H]3COC4)CC2)cc1Nc1ncc(-c2ccc(C#N)c(O[C@@H](C)Cn3cnnn3)c2)cn1` [Example 36, 2-(((S)-1-(1H-tetrazol-1-yl)propan-2-yl)oxy)-4-(2-((1-((1r,4r)-4-((1R,5S)-3-oxa-8-azabicyclo[3.2.1]octan-8-yl)cyclohexyl)-3-(3-ethoxypropoxy)-1H-pyrazol-4-yl)amino)pyrimidin-5-yl)benzonitrile], in assay [1], the inhibition in vivo at 30 mg/kg is > 30%. For the same molecule, the concentration for half-maximal inhibition (IC50) at human CaMKIIδ (setting [2]) was < 10 nM.

`C[C@@H]1CN([C@H]2CC[C@H](n3cc(Nc4ncc(-c5ccc(Cl)c(O[C@@H](C)Cn6cnnn6)c5)cn4)c(OCCC(C)(C)O)n3)CC2)C[C@H](C)O1` [Example 486, 4-((4-((5-(3-(((S)-1-(1H-tetrazol-1-yl)propan-2-yl)oxy)-4-chlorophenyl)pyrimidin-2-yl)amino)-1-((1r,4r)-4-((2S,6R)-2,6-dimethylmorpholino)cyclohexyl)-1H-pyrazol-3-yl)oxy)-2-methylbutan-2-ol]: in assay [1], the inhibition in vivo at 30 mg/kg was > 30%. The IC50 at human CaMKIIδ (setting [3]) was < 10 nM.

Regarding `COCCOCCCOc1nn([C@H]2CC[C@H](N3C[C@@H](C)O[C@@H](C)C3)CC2)cc1Nc1ncc(-c2ccc(Cl)c(O[C@@H](C)Cn3cnnn3)c2)cn1` [Example 487, 5-(3-(((S)-1-(1H-tetrazol-1-yl)propan-2-yl)oxy)-4-chlorophenyl)-N-(1-((1r,4r)-4-((2S,6R)-2,6-dimethylmorpholino)cyclohexyl)-3-(3-(2-methoxyethoxy)propoxy)-1H-pyrazol-4-yl)pyrimidin-2-amine], the inhibition in vivo at 30 mg/kg in assay [1] is > 30%. The concentration for half-maximal inhibition (IC50) at human CaMKIIδ (setting [3]) was < 10 nM.

`COCCCOc1nn([C@H]2CC[C@H](N3C[C@@H](C)O[C@@H](C)C3)CC2)cc1Nc1ncc(-c2ccc(Cl)c(O[C@@H](C)Cn3cnnn3)c2)cn1` [Example 489, 5-(3-(((S)-1-(1H-tetrazol-1-yl)propan-2-yl)oxy)-4-chlorophenyl)-N-(1-((1r,4r)-4-((2S,6R)-2,6-dimethylmorpholino)cyclohexyl)-3-(3-methoxypropoxy)-1H-pyrazol-4-yl)pyrimidin-2-amine]: the inhibition in vivo at 30 mg/kg in assay [1] was > 30%. For the same molecule, the IC50 at human CaMKIIδ (setting [3]) was < 10 nM.

In the case of `Cc1noc(C)c1COc1nn([C@H]2CC[C@H](N3CCOCC3)CC2)cc1Nc1ncc(-c2ccc(Cl)c(O[C@@H](C)Cn3cnnn3)c2)cn1` [Example 506, 5-(3-(((S)-1-(1H-tetrazol-1-yl)propan-2-yl)oxy)-4-chlorophenyl)-N-(3-((3,5-dimethylisoxazol-4-yl)methoxy)-1-((1r,4r)-4-morpholinocyclohexyl)-1H-pyrazol-4-yl)pyrimidin-2-amine], the IC50 at human CaMKIIδ (setting [3]) is < 10 nM.

Take `C[C@@H](Cn1cnnn1)Oc1cc(-c2cnc(Nc3cn([C@H]4CC[C@H](N5CCOCC5)CC4)nc3OCCn3ccnc3)nc2)ccc1Cl` [Example 507, N-(3-(2-(1H-imidazol-1-yl)ethoxy)-1-((1r,4r)-4-morpholinocyclohexyl)-1H-pyrazol-4-yl)-5-(3-(((S)-1-(1H-tetrazol-1-yl)propan-2-yl)oxy)-4-chlorophenyl)pyrimidin-2-amine]: the IC50 at human CaMKIIδ (setting [3]) is < 10 nM.

Turning to `C[C@@H](Cn1cnnn1)Oc1cc(-c2cnc(Nc3cn([C@H]4CC[C@H](N5CCOCC5)CC4)nc3OCCCn3cncn3)nc2)ccc1Cl` [Example 508, N-(3-(3-(1H-1,2,4-triazol-1-yl)propoxy)-1-((1r,4r)-4-morpholinocyclohexyl)-1H-pyrazol-4-yl)-5-(3-(((S)-1-(1H-tetrazol-1-yl)propan-2-yl)oxy)-4-chlorophenyl)pyrimidin-2-amine], at human CaMKIIδ (setting [3]), the IC50 is < 10 nM.

Take `C[C@@H](Cn1cnnn1)Oc1cc(-c2cnc(Nc3cn([C@H]4CC[C@H](N5CCOCC5)CC4)nc3OCc3ncccn3)nc2)ccc1Cl` [Example 509, 5-(3-(((S)-1-(1H-tetrazol-1-yl)propan-2-yl)oxy)-4-chlorophenyl)-N-(1-((1r,4r)-4-morpholinocyclohexyl)-3-(pyrimidin-2-ylmethoxy)-1H-pyrazol-4-yl)pyrimidin-2-amine]: the IC50 on human CaMKIIδ (setting [3]) was 10 to 100 nM.

Consider `C[C@@H](Cn1cnnn1)Oc1cc(-c2cnc(Nc3cn([C@H]4CC[C@H](N5CCOCC5)CC4)nc3OCCc3cccnc3)nc2)ccc1Cl` [Example 510, 5-(3-(((S)-1-(1H-tetrazol-1-yl)propan-2-yl)oxy)-4-chlorophenyl)-N-(1-((1r,4r)-4-morpholinocyclohexyl)-3-(2-(pyridin-3-yl)ethoxy)-1H-pyrazol-4-yl)pyrimidin-2-amine], for which, on human CaMKIIδ (setting [3]), the concentration for half-maximal inhibition (IC50) was < 10 nM.

At human CaMKIIδ (setting [3]), `COCCOCCOCCOc1nn([C@H]2CC[C@H](N3CCOCC3)CC2)cc1Nc1ncc(-c2ccc(Cl)c(O[C@@H](C)Cn3cnnn3)c2)cn1` [Example 511, 5-(3-(((S)-1-(1H-tetrazol-1-yl)propan-2-yl)oxy)-4-chlorophenyl)-N-(3-(2-(2-(2-methoxyethoxy)ethoxy)ethoxy)-1-((1r,4r)-4-morpholinocyclohexyl)-1H-pyrazol-4-yl)pyrimidin-2-amine] showed an IC50 of 10 to 100 nM.

As to `[2H]C([2H])([2H])OCCCOc1nn([C@H]2CC[C@H](N3CCOCC3)CC2)cc1Nc1ncc(-c2ccc(Cl)c(O[C@@H](C)Cn3cnnn3)c2)cn1` [Example 512, 5-(3-(((S)-1-(1H-tetrazol-1-yl)propan-2-yl)oxy)-4-chlorophenyl)-N-(3-(3-(methoxy-d3)propoxy)-1-((1r,4r)-4-morpholinocyclohexyl)-1H-pyrazol-4-yl)pyrimidin-2-amine], the IC50 at human CaMKIIδ (setting [3]) was < 10 nM.

Consider `C[C@@H](Cn1cnnn1)Oc1cc(-c2cnc(Nc3cn([C@H]4CC[C@H](N5CCOCC5)CC4)nc3OCCn3cccn3)nc2)ccc1Cl` [Example 513, N-(3-(2-(1H-pyrazol-1-yl)ethoxy)-1-((1r,4r)-4-morpholinocyclohexyl)-1H-pyrazol-4-yl)-5-(3-(((S)-1-(1H-tetrazol-1-yl)propan-2-yl)oxy)-4-chlorophenyl)pyrimidin-2-amine], for which the half-maximal inhibitory concentration (IC50) on human CaMKIIδ (setting [3]) was < 10 nM.
